Test: Heat storage of granule or raw substance on a tray at 70° C., residual ratio of functional substance
Assay type: physicochemical

| residual ratio of lipoic acid (on a tray at 70° C. for 24 hours) [%] | residual ratio of vitamin E (on a tray at 70° C. for 72 hours) [%] | Compound |
| --- | --- | --- |
| 40.5 | – | O=C(O)CCCCC1CCSS1 (centres unmarked) [Comparative Example 8, Lipoic acid] |
| – | 96.5 | Vitamin E [Comparative Example 10] |

— patent publication US20100226994A1, “GRANULE, TABLET AND METHODS FOR PRODUCING THE SAME” (priority 2007, published 2010)
